This is an account of results in ChEMBL document CHEMBL1152352, “Identification of a chromone-based retinoid containing a polyolefinic side chain via facile synthetic routes” (Bioorg Med Chem Lett, 2009).

Assay [1] addresses T1, Retinoic acid receptor alpha (Homo sapiens, UniProt P10276).
T1 sequence (P10276 whole entry): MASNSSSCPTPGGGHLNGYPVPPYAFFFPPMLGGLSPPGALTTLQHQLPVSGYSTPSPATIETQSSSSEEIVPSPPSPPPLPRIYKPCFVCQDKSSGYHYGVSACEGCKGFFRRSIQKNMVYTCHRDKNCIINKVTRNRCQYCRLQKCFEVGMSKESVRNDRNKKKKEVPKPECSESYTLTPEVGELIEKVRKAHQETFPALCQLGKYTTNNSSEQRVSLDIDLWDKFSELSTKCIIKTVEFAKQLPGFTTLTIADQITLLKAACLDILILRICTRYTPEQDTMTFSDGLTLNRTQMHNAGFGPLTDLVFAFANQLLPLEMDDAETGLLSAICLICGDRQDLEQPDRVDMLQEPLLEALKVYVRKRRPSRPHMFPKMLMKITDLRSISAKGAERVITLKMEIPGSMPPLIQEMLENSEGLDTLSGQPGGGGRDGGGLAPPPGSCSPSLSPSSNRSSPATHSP
Put plainly: Displacement of radioligand from RARalpha receptor.

Assay [2] addresses T2, Retinoic acid receptor beta (Homo sapiens, UniProt P10826).
T2 sequence (P10826 whole entry): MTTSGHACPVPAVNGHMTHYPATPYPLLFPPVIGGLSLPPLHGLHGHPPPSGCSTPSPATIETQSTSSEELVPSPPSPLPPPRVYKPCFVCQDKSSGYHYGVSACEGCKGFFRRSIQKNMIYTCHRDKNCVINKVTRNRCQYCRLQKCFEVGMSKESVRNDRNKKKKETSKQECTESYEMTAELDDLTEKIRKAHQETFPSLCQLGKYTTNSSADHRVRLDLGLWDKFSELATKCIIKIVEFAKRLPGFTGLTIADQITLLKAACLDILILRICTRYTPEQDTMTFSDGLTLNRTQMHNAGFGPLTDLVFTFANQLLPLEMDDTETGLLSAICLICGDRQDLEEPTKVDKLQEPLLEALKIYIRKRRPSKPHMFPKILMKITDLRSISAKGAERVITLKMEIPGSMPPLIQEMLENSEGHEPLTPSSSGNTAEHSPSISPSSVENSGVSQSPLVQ
The assay can be described thus: Displacement of radioligand from RARbeta receptor.

Assay [3] addresses T3, Retinoic acid receptor gamma (Homo sapiens, UniProt P13631).
T3 sequence (P13631 whole entry): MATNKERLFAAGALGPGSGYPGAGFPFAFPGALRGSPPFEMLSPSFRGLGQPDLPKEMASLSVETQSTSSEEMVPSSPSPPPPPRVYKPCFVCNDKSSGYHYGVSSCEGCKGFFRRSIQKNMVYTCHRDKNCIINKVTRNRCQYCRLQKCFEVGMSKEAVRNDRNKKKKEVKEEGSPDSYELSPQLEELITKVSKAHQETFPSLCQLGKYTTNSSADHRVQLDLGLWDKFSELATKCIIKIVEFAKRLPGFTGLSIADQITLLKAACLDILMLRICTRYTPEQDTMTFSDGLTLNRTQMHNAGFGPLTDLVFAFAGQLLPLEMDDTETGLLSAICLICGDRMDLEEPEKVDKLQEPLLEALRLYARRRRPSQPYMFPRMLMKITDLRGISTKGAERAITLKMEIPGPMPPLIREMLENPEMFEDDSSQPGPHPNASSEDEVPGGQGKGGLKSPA
Put plainly: Displacement of radioligand from RARgamma receptor.

For `CC(=C\c1coc2cc3c(cc2c1=O)C(C)(C)CCC3(C)C)/C=C(\C)C(=O)O`, the concentration for half-maximal inhibition (IC50) – broadly, the concentration at which inhibition is half-maximal – in assay [1] was 0.015 µM; in assay [2], 0.04 µM; in assay [3] it was 0.04 µM.
